Experimental data: ChEMBL document CHEMBL3885861, “Open TG-GATES”

Organism: Rattus norvegicus
Assay: Open TG-GATES - Regimen: Single
Type: toxicity, organism-based, Sprague-Dawley
Design: regimen Single, gender Male, age 6 weeks
Conditions: in vivo, po, route gavage; for gamma-GTP / ALP / ALT / AST / BUN / CRE / Ca / DBIL / GLC / IP / K / LDH / Na / PL / RALB / TBIL / TC / TG / TP: tissue Plasma; for APTT / Bas / Eos / Fbg / Hb / Ht / Lym / MCH / MCHC / MCV / Mono / Neu / PT / Plat / RBC / Ret / WBC: tissue Blood; for KIDNEY_L / KIDNEY_R / KIDNEY_TOTAL: tissue Kidney; for LIVER: tissue Liver

SMILES: CSc1ccc2c(c1)N(CCC1CCCCN1C)c1ccccc1S2 (stereo not drawn) [THIORIDAZINE]
- gamma-GTP (0 mg/kg, 24 h, dose level Control): 1.2 IU/L
- TERMINAL_BW (10 mg/kg, 3 h, dose level Low): 216.5 g
- APTT (10 mg/kg, 3 h, dose level Low): 16.2 s
- Bas (10 mg/kg, 3 h, dose level Low): 0%
- Eos (10 mg/kg, 3 h, dose level Low): 0.6%
- Fbg (10 mg/kg, 3 h, dose level Low): 201 mg/dL
- Hb (10 mg/kg, 3 h, dose level Low): 12.6 g/dL
- Ht (10 mg/kg, 3 h, dose level Low): 37.5%
- Lym (10 mg/kg, 3 h, dose level Low): 77%
- MCH (10 mg/kg, 3 h, dose level Low): 22.5 pg
- MCHC (10 mg/kg, 3 h, dose level Low): 33.6%
- MCV (10 mg/kg, 3 h, dose level Low): 67.1 fL
- Mono (10 mg/kg, 3 h, dose level Low): 9.8%
- Neu (10 mg/kg, 3 h, dose level Low): 13%
- PT (10 mg/kg, 3 h, dose level Low): 12.2 s
- Plat (10 mg/kg, 3 h, dose level Low): 94.9 x10_4/uL
- RBC (10 mg/kg, 3 h, dose level Low): 560.4 x10_4/ul
- Ret (10 mg/kg, 3 h, dose level Low): 8%
- WBC (10 mg/kg, 3 h, dose level Low): 87.7 x10_2/uL
- KIDNEY_L (10 mg/kg, 3 h, dose level Low): 1 g
- KIDNEY_R (10 mg/kg, 3 h, dose level Low): 1 g
- KIDNEY_TOTAL (10 mg/kg, 3 h, dose level Low): 2 g
- LIVER (10 mg/kg, 3 h, dose level Low): 10.5 g
- ALP (10 mg/kg, 3 h, dose level Low): 973.8 IU/L
- ALT (10 mg/kg, 3 h, dose level Low): 36.8 IU/L
- AST (10 mg/kg, 3 h, dose level Low): 65.4 IU/L
- BUN (10 mg/kg, 3 h, dose level Low): 13.2 mg/dL
- CRE (10 mg/kg, 3 h, dose level Low): 0.5 mg/dL
- Ca (10 mg/kg, 3 h, dose level Low): 11.2 mg/dL
- DBIL (10 mg/kg, 3 h, dose level Low): 0.016 mg/dL
- GLC (10 mg/kg, 3 h, dose level Low): 205.6 mg/dL
- IP (10 mg/kg, 3 h, dose level Low): 10.7 mg/dL
- K (10 mg/kg, 3 h, dose level Low): 5.1 meq/L
- LDH (10 mg/kg, 3 h, dose level Low): 95 IU/L
- Na (10 mg/kg, 3 h, dose level Low): 139.4 meq/L
- PL (10 mg/kg, 3 h, dose level Low): 140.2 mg/dL
- RALB (10 mg/kg, 3 h, dose level Low): 3.7 g/dL
- TBIL (10 mg/kg, 3 h, dose level Low): 0.3 mg/dL
- TC (10 mg/kg, 3 h, dose level Low): 76.8 mg/dL
- TG (10 mg/kg, 3 h, dose level Low): 69.2 mg/dL
- TP (10 mg/kg, 3 h, dose level Low): 5.3 g/dL
- gamma-GTP (10 mg/kg, 3 h, dose level Low): 0.8 IU/L
- TERMINAL_BW (10 mg/kg, 6 h, dose level Low): 214.5 g
- APTT (10 mg/kg, 6 h, dose level Low): 16.8 s
- Bas (10 mg/kg, 6 h, dose level Low): 0%
- Eos (10 mg/kg, 6 h, dose level Low): 1%
- Fbg (10 mg/kg, 6 h, dose level Low): 210.6 mg/dL
- Hb (10 mg/kg, 6 h, dose level Low): 13.1 g/dL
- Ht (10 mg/kg, 6 h, dose level Low): 39%
- Lym (10 mg/kg, 6 h, dose level Low): 78.8%
- MCH (10 mg/kg, 6 h, dose level Low): 22 pg
- MCHC (10 mg/kg, 6 h, dose level Low): 33.5%
- MCV (10 mg/kg, 6 h, dose level Low): 65.8 fL
- Mono (10 mg/kg, 6 h, dose level Low): 8.6%
- Neu (10 mg/kg, 6 h, dose level Low): 12%
- PT (10 mg/kg, 6 h, dose level Low): 12.2 s
- Plat (10 mg/kg, 6 h, dose level Low): 109 x10_4/uL
- RBC (10 mg/kg, 6 h, dose level Low): 593 x10_4/ul
- Ret (10 mg/kg, 6 h, dose level Low): 8.6%
- WBC (10 mg/kg, 6 h, dose level Low): 129.7 x10_2/uL
- KIDNEY_L (10 mg/kg, 6 h, dose level Low): 1 g
- KIDNEY_R (10 mg/kg, 6 h, dose level Low): 1 g
- KIDNEY_TOTAL (10 mg/kg, 6 h, dose level Low): 2 g
- ALP (10 mg/kg, 6 h, dose level Low): 779.8 IU/L
- ALT (10 mg/kg, 6 h, dose level Low): 27.6 IU/L
- AST (10 mg/kg, 6 h, dose level Low): 62.4 IU/L
- BUN (10 mg/kg, 6 h, dose level Low): 11.8 mg/dL
- CRE (10 mg/kg, 6 h, dose level Low): 0.5 mg/dL
- Ca (10 mg/kg, 6 h, dose level Low): 10.8 mg/dL
- DBIL (10 mg/kg, 6 h, dose level Low): 0.022 mg/dL
- GLC (10 mg/kg, 6 h, dose level Low): 192.4 mg/dL
- IP (10 mg/kg, 6 h, dose level Low): 10.2 mg/dL
- K (10 mg/kg, 6 h, dose level Low): 4.9 meq/L
- LDH (10 mg/kg, 6 h, dose level Low): 94 IU/L
- Na (10 mg/kg, 6 h, dose level Low): 138.8 meq/L
- PL (10 mg/kg, 6 h, dose level Low): 136.4 mg/dL
- RALB (10 mg/kg, 6 h, dose level Low): 3.7 g/dL
- TBIL (10 mg/kg, 6 h, dose level Low): 0.4 mg/dL
- TC (10 mg/kg, 6 h, dose level Low): 71.6 mg/dL
- TG (10 mg/kg, 6 h, dose level Low): 60.2 mg/dL
- TP (10 mg/kg, 6 h, dose level Low): 5.4 g/dL
- gamma-GTP (10 mg/kg, 6 h, dose level Low): 3.2 IU/L
- TERMINAL_BW (10 mg/kg, 9 h, dose level Low): 213.3 g
- APTT (10 mg/kg, 9 h, dose level Low): 16.6 s
- Bas (10 mg/kg, 9 h, dose level Low): 0%
- Eos (10 mg/kg, 9 h, dose level Low): 1%
- Fbg (10 mg/kg, 9 h, dose level Low): 209.6 mg/dL
- Hb (10 mg/kg, 9 h, dose level Low): 12.7 g/dL
- Ht (10 mg/kg, 9 h, dose level Low): 38.5%
- Lym (10 mg/kg, 9 h, dose level Low): 72.4%
- MCH (10 mg/kg, 9 h, dose level Low): 21.3 pg
- MCHC (10 mg/kg, 9 h, dose level Low): 33.1%
- MCV (10 mg/kg, 9 h, dose level Low): 64.5 fL
- Mono (10 mg/kg, 9 h, dose level Low): 6.4%
- Neu (10 mg/kg, 9 h, dose level Low): 20.6%
- PT (10 mg/kg, 9 h, dose level Low): 12.3 s
- Plat (10 mg/kg, 9 h, dose level Low): 105.4 x10_4/uL
- RBC (10 mg/kg, 9 h, dose level Low): 598.2 x10_4/ul
- Ret (10 mg/kg, 9 h, dose level Low): 8.1%
- WBC (10 mg/kg, 9 h, dose level Low): 80.7 x10_2/uL
- KIDNEY_L (10 mg/kg, 9 h, dose level Low): 1 g
- KIDNEY_R (10 mg/kg, 9 h, dose level Low): 1 g
- KIDNEY_TOTAL (10 mg/kg, 9 h, dose level Low): 2.1 g
- LIVER (10 mg/kg, 9 h, dose level Low): 9.6 g
- ALP (10 mg/kg, 9 h, dose level Low): 749.8 IU/L
- ALT (10 mg/kg, 9 h, dose level Low): 29.4 IU/L
- AST (10 mg/kg, 9 h, dose level Low): 64.4 IU/L
- BUN (10 mg/kg, 9 h, dose level Low): 11.2 mg/dL
- CRE (10 mg/kg, 9 h, dose level Low): 0.6 mg/dL
- Ca (10 mg/kg, 9 h, dose level Low): 10.8 mg/dL
- DBIL (10 mg/kg, 9 h, dose level Low): 0.034 mg/dL
- GLC (10 mg/kg, 9 h, dose level Low): 195.4 mg/dL
- IP (10 mg/kg, 9 h, dose level Low): 10.7 mg/dL
- K (10 mg/kg, 9 h, dose level Low): 5.1 meq/L
- LDH (10 mg/kg, 9 h, dose level Low): 66.8 IU/L
- Na (10 mg/kg, 9 h, dose level Low): 140 meq/L
- PL (10 mg/kg, 9 h, dose level Low): 142.2 mg/dL
- RALB (10 mg/kg, 9 h, dose level Low): 3.8 g/dL
- TBIL (10 mg/kg, 9 h, dose level Low): 0.4 mg/dL
- TC (10 mg/kg, 9 h, dose level Low): 77.4 mg/dL
- TG (10 mg/kg, 9 h, dose level Low): 31.4 mg/dL
- TP (10 mg/kg, 9 h, dose level Low): 5.3 g/dL
- gamma-GTP (10 mg/kg, 9 h, dose level Low): 1.6 IU/L
- TERMINAL_BW (10 mg/kg, 24 h, dose level Low): 232.6 g
- APTT (10 mg/kg, 24 h, dose level Low): 16.5 s
- Bas (10 mg/kg, 24 h, dose level Low): 0%
- Eos (10 mg/kg, 24 h, dose level Low): 1%
- Fbg (10 mg/kg, 24 h, dose level Low): 215.4 mg/dL
- Hb (10 mg/kg, 24 h, dose level Low): 13 g/dL
- Ht (10 mg/kg, 24 h, dose level Low): 39.1%
- Lym (10 mg/kg, 24 h, dose level Low): 80.4%
- MCH (10 mg/kg, 24 h, dose level Low): 21.8 pg
- MCHC (10 mg/kg, 24 h, dose level Low): 33.3%
- MCV (10 mg/kg, 24 h, dose level Low): 65.3 fL
- Mono (10 mg/kg, 24 h, dose level Low): 6.6%
- Neu (10 mg/kg, 24 h, dose level Low): 11.8%
- PT (10 mg/kg, 24 h, dose level Low): 12.2 s
- RBC (10 mg/kg, 24 h, dose level Low): 599.2 x10_4/ul
- Ret (10 mg/kg, 24 h, dose level Low): 8.2%
- WBC (10 mg/kg, 24 h, dose level Low): 132.3 x10_2/uL
- KIDNEY_L (10 mg/kg, 24 h, dose level Low): 1 g
- KIDNEY_R (10 mg/kg, 24 h, dose level Low): 1 g
- KIDNEY_TOTAL (10 mg/kg, 24 h, dose level Low): 2 g
- LIVER (10 mg/kg, 24 h, dose level Low): 11.9 g
- ALP (10 mg/kg, 24 h, dose level Low): 799.2 IU/L
- ALT (10 mg/kg, 24 h, dose level Low): 39.6 IU/L
- AST (10 mg/kg, 24 h, dose level Low): 68.6 IU/L
- BUN (10 mg/kg, 24 h, dose level Low): 19 mg/dL
- CRE (10 mg/kg, 24 h, dose level Low): 0.5 mg/dL
- Ca (10 mg/kg, 24 h, dose level Low): 11.3 mg/dL
- DBIL (10 mg/kg, 24 h, dose level Low): 0.074 mg/dL
- GLC (10 mg/kg, 24 h, dose level Low): 193.6 mg/dL
- IP (10 mg/kg, 24 h, dose level Low): 8.7 mg/dL
- K (10 mg/kg, 24 h, dose level Low): 4.9 meq/L
- LDH (10 mg/kg, 24 h, dose level Low): 77.4 IU/L
- Na (10 mg/kg, 24 h, dose level Low): 138.2 meq/L
- PL (10 mg/kg, 24 h, dose level Low): 154.8 mg/dL
- RALB (10 mg/kg, 24 h, dose level Low): 4 g/dL
- TBIL (10 mg/kg, 24 h, dose level Low): 0.4 mg/dL
- TC (10 mg/kg, 24 h, dose level Low): 81 mg/dL
- TG (10 mg/kg, 24 h, dose level Low): 116.8 mg/dL
- TP (10 mg/kg, 24 h, dose level Low): 5.8 g/dL
- gamma-GTP (10 mg/kg, 24 h, dose level Low): 1.4 IU/L
